Measurements from patent US6491953B1, “Controlled release compositions and method” (Amcol International Corporation, priority 1999, dated 2002).

test: Adsorption / entrapment of solid and liquid materials on POLYPORE E 200 microparticles (Example 1); type: physicochemical; settings: adsorbed on microparticles of Example 1 (POLYPORE E 200)
Source text: The adsorbent polymer microparticles made by the suspension polymerization technique include at least two polyunsaturated monomers, preferably allyl methacrylate and an ethylene glycol dimethacrylate, and, optionally, monounsaturated monomers. The microparticles are characterized by being open to their interior, due to either particle fracture upon removal of a porogen after polymerization or to subsequent milling. […] In a preferred embodiment, the broken sphere microparticles are characterized by a mean unit diameter from about 1 to about 50 microns, more preferably from about 1 to about 25 microns, most preferably, from about 1 to about 20 microns.
The copolymer powder of Example 1 was mixed with zinc pyrithione (solids having a particle size of 3 to 5 microns slurried in water) in an amount of 12 grams of slurry per one gram of the copolymer, then dried in an oven at 80° C. to evaporate water. […] Zinc pyrithione was supplied by Ruetger Nease Company, as mixture of 48% of zinc pyrithione, 51% water, and 1% zinc chloride, and is used as antidandruff component in hair care products, e.g., antidandruff shampoos.
The copolymer of Example 1 was loaded with a methanol/salicylic acid solution in an amount of 12 grams per gram, and dried in an oven at 80° C. to evaporate the methanol. […] Salicylic acid is an antiseptic and antifungal agent.
Retinol was dissolved in same amount of ether. The solution (5.5 grams) was adsorbed on 1 gram of the adsorbent polymer of Example 1. […] Usually retinol is in the form of sticky crystals, is light sensitive, and is skin irritant. Retinol is used in cosmetic formulations and as a vitamin.

Point of comparison: “Cyclomethicone [Cyclomethicone (DC 244)]”, “Free-Flowing (g/g) adsorbed” value 9.6 g/g. Against it:
- CC(=O)Oc1c(C)c(C)c2c(c1C)CCC(C)(CCC[C@H](C)CCC[C@H](C)CCCC(C)C)O2 (stereo partly shown) [Vitamin E Acetate] — lower, 5.6 g/g
- CC(=O)OCc1ccccc1 [Benzyl Acetate] — higher, 10.2 g/g
- CCCCCCCCCCCCCC(=O)OC(C)C [Isopropyl Myristate] — lower, 8.0 g/g
- COc1ccc(C(=O)c2ccccc2)c(O)c1 [Benzophenone-3] — lower, 9.2 g/g
- OCC(O)CO [Glycerin] — lower, 6.0 g/g

Point of comparison: COc1ccc(C(=O)c2ccccc2)c(O)c1 [Benzophenone-3], “Total (g/g) adsorbed” value 12.3 g/g. Against it:
- CC(=O)Oc1c(C)c(C)c2c(c1C)CCC(C)(CCC[C@H](C)CCC[C@H](C)CCCC(C)C)O2 (stereo partly shown) [Vitamin E Acetate] — lower, 7.2 g/g
- Cyclomethicone [Cyclomethicone (DC 244)] — lower, 12.0 g/g
- CC(=O)OCc1ccccc1 [Benzyl Acetate] — the same, 12.3 g/g
- CCCCCCCCCCCCCC(=O)OC(C)C [Isopropyl Myristate] — lower, 10.7 g/g
- Oc1cc(Cl)ccc1Oc1ccc(Cl)cc1Cl [IRGASAN DP 300, 5-chloro-2-(2,4-dichlorophenoxy)phenol] — lower, 10.0 g/g
- OCC(O)CO [Glycerin] — lower, 8.0 g/g

test: Adsorption / entrapment of solid and liquid active agents on POLYPORE L 200 microparticles (Example 2); type: physicochemical; settings: adsorbed on microparticles of Example 2 (POLYPORE L 200)
Description: The copolymer of Example 2 was loaded with a methanol/salicylic acid solution to an amount of 12 grams per gram, and dried in an oven at 80° C. to evaporate methanol. The resulting dry product was a white, fine powder, with […] entrapped salicylic acid, i.e., 2.8 grams per gram.
Retinol was dissolved in an equal weight amount of ether, then 5.5 grams of the solution was adsorbed on 1 gram of the adsorbent polymer of Example 2. Thereafter, ether was evacuated under vacuum, and a free-flowing light yellow powder was obtained. The adsorbed amount of retinol was 2.75 grams per gram, i.e., 73%. Usually, retinol is in form of sticky crystals, is light sensitive, and a skin irritant.
The microparticles of Example 2 (POLYPORE™ L 200) also had various other solid and liquid active agents adsorbed thereto, as shown in Table 2: […]

Point of comparison: CC(=O)Oc1c(C)c(C)c2c(c1C)CCC(C)(CCC[C@H](C)CCC[C@H](C)CCCC(C)C)O2 (stereo partly shown) [Vitamin E Acetate], “Free-Flowing (g/g) adsorbed” value 7.0 g/g. Against it:
- Cyclomethicone [Cyclomethicone (DC 244)] — higher, 10.8 g/g
- CC(=O)OCc1ccccc1 [Benzyl Acetate] — higher, 9.9 g/g
- CCCCCCCCCCCCCC(=O)OC(C)C [Isopropyl Myristate] — higher, 9.5 g/g
- COc1ccc(C(=O)c2ccccc2)c(O)c1 [Benzophenone-3] — higher, 9.1 g/g
- OCC(O)CO [Glycerin] — higher, 7.6 g/g

Point of comparison: Oc1cc(Cl)ccc1Oc1ccc(Cl)cc1Cl [IRGASAN DP 300, 5-chloro-2-(2,4-dichlorophenoxy)phenol], “Total (g/g) adsorbed” value 10.7 g/g. Against it:
- CC(=O)Oc1c(C)c(C)c2c(c1C)CCC(C)(CCC[C@H](C)CCC[C@H](C)CCCC(C)C)O2 (stereo partly shown) [Vitamin E Acetate] — lower, 9.2 g/g
- Cyclomethicone [Cyclomethicone (DC 244)] — higher, 15.0 g/g
- CC(=O)OCc1ccccc1 [Benzyl Acetate] — higher, 12.7 g/g
- CCCCCCCCCCCCCC(=O)OC(C)C [Isopropyl Myristate] — higher, 11.4 g/g
- COc1ccc(C(=O)c2ccccc2)c(O)c1 [Benzophenone-3] — higher, 12.8 g/g
- OCC(O)CO [Glycerin] — lower, 10.0 g/g

test: Stability (discoloration) of ascorbic acid compositions added to water; type: physicochemical; settings: in water at 45° C.
Description: The stability of the three compositions was tested by adding individual portions of the three compositions to water at 25° C. and at 45° C. A control solution of 1-ascorbic acid in water discolored after four hours at 45° C. and after five days at room temperature. […] A polymer-ascorbic acid solution, without the addition of a release retardant, also discolored during the test. Accordingly, a release retardant protects and stabilizes an active agent adsorbed onto an adsorbent polymer.

For O=C1O[C@H]([C@@H](O)CO)C(O)=C1O [1-ascorbic acid], the “time after which solution discolored” value was “four”.

same assay, conditions: in water at room temperature

With O=C1O[C@H]([C@@H](O)CO)C(O)=C1O [1-ascorbic acid] the “time after which solution discolored” value was “five”.
